{"source": "patent US20120269781A1", "about": "“METHOD FOR PROLIFERATING HAIR FOLLICLE STEM CELLS” (RNL BIO CO., LTD., priority 2009, published 2012)", "key": {"follicular stem cells [1]": {"system": "follicular stem cells", "assay": "Culture of follicular stem cells in 9 kinds of media with or without ROCK inhibitor", "type": "cell-based, human", "settings": "10 μM", "protocol": "Then, the follicular stem cells were added to each well of a 12-well plate, and 1 ml of each of control groups and test groups for 9 kinds of media containing ITS+ (insulin, transferrine, selenium) premix, EGF, bFGF and an antibiotic/antimycotic mixture was added to each well of the 12-well plate. 10 μl (10 μM) of the ROCK inhibitor Y-27632 was added to each of the test groups, and the cells were cultured.\nAt days 2, 3 and 4 after the start of culture, the state of proliferation of the follicular stem cells in each of the media was observed, and the results of the observation are shown in FIGS. 1 to 5."}, "follicular stem cells [2]": {"system": "follicular stem cells", "assay": "Proliferation ability of follicular stem cells at various concentrations of ROCK inhibitor", "type": "cell-based, human", "settings": "M199/F-12 medium, days 2-6", "protocol": "In order to examine the proliferation ability of follicular stem cells at various concentrations of the ROCK inhibitor, the ROCK inhibitor was added at various concentrations to a M199/F-12 medium containing ITS+ premix, EGF, bFGF and antibiotic/antimycotic mixture, and the follicular stem cells obtained in Example 1 were cultured in the medium. Specifically, 10 μM of the ROCK inhibitor was added to M199/F-12 used in Example 1, and the P1 follicular stem cells were cultured in the M199/F-12 medium and collected by TrypLE-Express treatment. Then, the cells were added to each well of a 6-well plate at a density of 7.70×10^5 cells, and 2 ml of M199/F-12 was added to each well of the 6-well plate. The cell suspension was plated in each well of a 6-well plate, and then the ROCK inhibitor Y-27632 was added at concentrations of 10 nM, 100 nM, 1 μM, 10 μM and 100 μM to the 5 wells (excluding the well for a control group) of the 6-well plate, respectively, followed by culture of the follicular stem cells. The medium was replaced at 2-day intervals during culture of the cells, and the cells were photographed 2, 3, 4, 5 and 6 days after the start of cell culture."}}, "data": [{"smiles": "CC(N)C1CCC(C(=O)Nc2ccncc2)CC1", "note": "(stereo not drawn) [ROCK inhibitor, Y-27632]", "values": [{"measurement": "effect on the proliferation of the follicular stem cells compared to the control groups", "setting": "follicular stem cells [1]; in M199/F12, MEM-alpha, DMEM L/G, DMEM H/G, MCDB 131 and IMEM medium", "value": "good effects"}, {"measurement": "effect on the proliferation of the follicular stem cells compared to the control groups", "setting": "follicular stem cells [1]; in M199/F12 medium and MEM-alpha medium", "value": "most excellent effects"}, {"measurement": "effect on increase in the number and on the viability of follicular stem cells", "setting": "follicular stem cells [1]; specific media containing the ROCK inhibitor", "value": "excellent effects"}, {"measurement": "proliferation of the cells versus cells not treated", "setting": "follicular stem cells [2]; 100 nM or less", "value": "did not significantly differ"}, {"measurement": "morphology / differentiation of the cells", "setting": "follicular stem cells [2]; 1 μM or 100 μM", "value": "morphological change or differentiation of the cells appeared"}, {"measurement": "proliferation of the cells", "setting": "follicular stem cells [2]; 1 μM or 100 μM", "value": "enhanced"}]}]}
